# Data from ChEMBL document CHEMBL1781934, “Syntheses and studies of amamistatin B analogs reveals that anticancer activity is relatively independent of stereochemistry, ester or amide linkage and select replacement of one of the metal chelating groups” (Bioorg Med Chem Lett, 2011).
# Legend:
# MCF7 [1] = experiment: Growth inhibition of human MCF7 cells at 20 uM after 72 hrs by crystal violet biomass reduction assay; assay type: functional; details: MCF7, 72 h, read-out: GI
# MCF7 [2] = experiment: Anticancer activity against human MCF7 cells after 72 hrs by crystal violet biomass reduction assay; assay type: functional, cell-based; details: MCF7, 72 h
# PC-3 [3] = experiment: Growth inhibition of human PC3 cells at 20 uM after 72 hrs by crystal violet biomass reduction assay; assay type: functional; details: PC-3, 72 h, read-out: GI
# PC-3 [4] = experiment: Anticancer activity against human PC3 cells after 72 hrs by crystal violet biomass reduction assay; assay type: functional, cell-based; details: PC-3, 72 h
# P388 = experiment: Cytotoxicity against mouse P388 cells; assay type: functional, cell-based
SMILES,IC50 (MCF7 [2]) [nM],IC50 (PC-3 [4]) [nM],inhibition of growth at 20 µM (MCF7 [1]) [%],inhibition of growth at 20 µM (PC-3 [3]) [%],IC50 (P388) [µg/mL]
CCCCCCC[C@H](CC(=O)N[C@H]1CCCCN(O)C1=O)NC(=O)[C@H](CCCCN(O)C=O)NC(=O)c1nc(-c2ccccc2O)oc1C,550,9000,96,72,
CCCCCCC[C@@H](CC(=O)N[C@H]1CCCCN(O)C1=O)NC(=O)[C@H](CCCCN(O)C=O)NC(=O)c1nc(-c2ccccc2O)oc1C,2000,14000,95,68,
CCCCCCC[C@@H](CC(=O)N[C@H]1CCCCN(O)C1=O)OC(=O)[C@H](CCCCN(O)C=O)NC(=O)c1coc(-c2ccccc2O)n1,800,9000,93,60,
CCCCCCC[C@@H](CC(=O)N[C@H]1CCCCN(O)C1=O)OC(=O)[C@H](CCCCN(O)C=O)NC(=O)[C@@H]1COC(c2ccccc2O)=N1,500,3000,89,79,
CCCCCCC[C@@H](CC(=O)N[C@H]1CCCCN(O)C1=O)OC(=O)[C@H](CCCCN(O)C=O)NC(=O)[C@H]1COC(c2ccccc2O)=N1,3000,7500,90,79,
CCCCCCC[C@H](CC(=O)N[C@H]1CCCCN(O)C1=O)OC(=O)[C@H](CCCCN(O)C=O)NC(=O)c1cccc(O)c1O,6000,,86,40,
CCCCCCC[C@@H](CC(=O)N[C@H]1CCCCN(O)C1=O)OC(=O)[C@H](CCCCN(O)C=O)NC(=O)c1cccc(O)c1O,1000,7000,81,63,
CCCCCCC[C@H](OC(=O)[C@@H](CCCCN(O)C=O)NC(=O)c1nc(-c2ccccc2O)oc1C)C(C)(C)C(=O)N[C@H]1CCCCN(O)C1=O,,,,,0.016
CCCCCCC[C@H](OC(=O)[C@@H](CCCCN(O)C=O)NC(=O)c1nc(-c2cc(OC)ccc2O)oc1C)C(C)(C)C(=O)N[C@H]1CCCCN(O)C1=O [AMAMISTATIN A],,,,,0.015

# More lines, in order of falling IC50 (MCF7 [2]), values ahead:
IC50 (MCF7 [2]) [nM],IC50 (PC-3 [4]) [nM],SMILES,inhibition of growth at 20 µM (MCF7 [1]) [%],inhibition of growth at 20 µM (PC-3 [3]) [%],IC50 (P388) [µg/mL]
450,3750,CCCCCCC[C@H](CC(=O)N[C@H]1CCCCN(O)C1=O)OC(=O)[C@H](CCCCN(O)C=O)NC(=O)c1coc(-c2ccccc2O)n1,91,85,
320,8000,CCCCCCC[C@@H](CC(=O)N[C@H]1CCCCN(O)C1=O)OC(=O)[C@H](CCCCN(O)C=O)NC(=O)c1nc(-c2ccccc2O)oc1C,91,62,
320,2000,CCCCCCC[C@H](CC(=O)N[C@H]1CCCCN(O)C1=O)OC(=O)[C@H](CCCCN(O)C=O)NC(=O)[C@H]1COC(c2ccccc2O)=N1,92,90,
240,3000,CCCCCCC[C@H](CC(=O)N[C@H]1CCCCN(O)C1=O)OC(=O)[C@H](CCCCN(O)C=O)NC(=O)[C@@H]1COC(c2ccccc2O)=N1,87,83,
200,4000,CCCCCCC[C@H](CC(=O)N[C@H]1CCCCN(O)C1=O)OC(=O)[C@H](CCCCN(O)C=O)NC(=O)c1nc(-c2ccccc2O)oc1C,94,72,
